Reference: PMC3397391 (Chemistry & biology, 2012)

System: cultured P. falciparum
Assay: Cell culture inhibition assay, cultured parasites
Format: cell-based, Plasmodium falciparum
Conditions: in the presence of hypoxanthine; data not shown

O=c1[nH]cnc2c([C@@H]3N[C@H](COP(=O)(O)O)[C@@H](O)[C@H]3O)c[nH]c12 [ImmHP, Immucillin-H 5′-phosphate]
activity against cultured P. falciparum: lacks activity
